Experimental findings from ChEMBL document CHEMBL4765339, “Design, synthesis, and biological evaluation of 4-substituted-3,4-dihydrobenzo[h]quinoline-2,5,6(1H)-triones as NQO1-directed antitumor agents” (Eur J Med Chem, 2020) are described below.

In data set [1] the target is NAD(P)H dehydrogenase [quinone] 1 (Homo sapiens) (UniProt P15559). The data set can be described thus: Substrate activity at recombinant human C-terminal His-tagged NQO1 (1 to 274 residues) expressed in Escherichia coli assessed as enzyme activity by measuring oxidation of NADPH incubated for 5 mins measured per micromol of enzyme every 5 sec for 1 mins by UV-visible spectrophotometry.

The next data set deals with MCF7. The experiment in a line: Cytotoxicity against NQO1-rich human MCF7 cells assessed as reduction in cell growth incubated for 48 hrs by MTT assay. Type of data set: functional.
Data set [2] relates to HepG2. The data set can be described thus: Cytotoxicity against human HepG2 cells assessed as reduction in cell growth incubated for 48 hrs by MTT assay. Type of data set: functional. For orientation: Tetrazolium dyes change colour on reduction, which living cells bring about.
For data set [3], the system named is A549. The data set can be described thus: Cytotoxicity against human A549 cells assessed as reduction in cell growth incubated for 48 hrs by MTT assay. It counts as functional.
The nature of data set [4]: Selectivity index, ratio of GI50 for human A549 cells pretreated for 1 hr with NQO1 inhibitor, dicoumarol followed by incubation with compound for 48 hrs to GI50 for human A549 cells measured after 48 hrs by MTT assay. It counts as functional.
Data set [5] has as its system HepG2. The experiment in a line: Cytotoxicity against human HepG2 cells assessed as reduction in cell growth pretreated for 1 hr with NQO1 inhibitor, dicoumarol followed by incubation with compound for 48 hrs by MTT assay. It counts as functional.
In data set [6] the test system is A549. The experiment in a line: Cytotoxicity against human A549 cells assessed as reduction in cell growth pretreated for 1 hr with NQO1 inhibitor, dicoumarol followed by incubation with compound for 48 hrs by MTT assay. Type of data set: functional.
In data set [7] the test system is HepG2. The data set can be described thus: Cytotoxicity against human HepG2 cells assessed as reduction in cell growth pretreated for 1 hr with ROS scavenger, N-acetyl cysteine followed by incubation with compound for 48 hrs by MTT assay. It counts as functional.
Data set [8] has as its system A549. The experiment in a line: Cytotoxicity against human A549 cells assessed as reduction in cell growth pretreated for 1 hr with ROS scavenger, N-acetyl cysteine followed by incubation with compound for 48 hrs by MTT assay. It counts as functional.
Data set [9] can be described thus: Cytotoxicity against human L02 cells assessed as reduction in cell growth incubated for 48 hrs by MTT assay. Type of data set: cell-based.
Data set [10] concerns HepG2. The data set can be described thus: Induction of ROS generation in human HepG2 cells at 5 uM by DCFH-DA staining based flow cytometry analysis. It counts as functional, cell-based. Particulars: time 3-5 hrs, TDE = time-dependent effect. For orientation: A flow cytometer gives signals particle by particle.
Data set [11] has as its system HepG2. The data set can be described thus: Antitumor activity against human HepG2 cells xenografted in athymic nude mouse assessed as inhibition of tumor growth at 20 mg/kg, iv administered once every 2 days for 19 days by caliper analysis relative to control. Particulars: 456 h, time 19 day. It counts as functional. Background: A xenograft is tissue or cells of one species grown in another, often human tumour cells in immunodeficient mice.

Data set [12] is described as follows: Selectivity index, ratio of GI50 for human HepG2 cells pretreated for 1 hr with NQO1 inhibitor, dicoumarol followed by incubation with compound for 48 hrs to GI50 for human HepG2 cells measured after 48 hrs by MTT assay. Type of data set: functional.
Data set [13] in a line: Selectivity index, ratio of GI50 for human HepG2 cells pretreated for 1 hr with ROS scavenger, N-acetyl cysteine followed by incubation with compound for 48 hrs to GI50 for human HepG2 cells measured after 48 hrs by MTT assay. It counts as functional.
A short description of data set [14]: Selectivity index, ratio of GI50 for human A549 cells pretreated for 1 hr with ROS scavenger, N-acetyl cysteine followed by incubation with compound for 48 hrs to GI50 for human A549 cells measured after 48 hrs by MTT assay. It counts as functional.

For `COc1ccccc1C1CC(=O)NC2=C1C(=O)C(=O)c1ccccc12` (stereo not drawn), in data set [1], the Activity amounted to 354 µmol/min.
On the same count and under the same terms, next, `COc1cc(OC)cc(C2CC(=O)NC3=C2C(=O)C(=O)c2ccccc23)c1` (stereo not drawn): 194 µmol/min; `O=C1CC(c2ccccc2Cl)C2=C(N1)c1ccccc1C(=O)C2=O` (stereo not drawn): 467 µmol/min.
For the compound `CCCC1CC(=O)NC2=C1C(=O)C(=O)c1ccccc12` (stereo not drawn), the Activity in data set [1] is 486 µmol/min.
Turning to `O=C1CC(c2ccccc2F)C2=C(N1)c1ccccc1C(=O)C2=O` (stereo not drawn), the Activity in data set [1] was 1360 µmol/min. Besides, the GI50 (usually the concentration at which growth is held to half of that of the control) in the data set on MCF7 was 2.3 µM; in the data set with HepG2 [2], 2.57 µM; in the data set with A549 [3], 3.89 µM.
Consider `COc1ccc(OC)c(C2CC(=O)NC3=C2C(=O)C(=O)c2ccccc23)c1` (stereo not drawn), for which the Activity in [1] was found to be 180 µmol/min.
For `COc1cccc(C2CC(=O)NC3=C2C(=O)C(=O)c2ccccc23)c1` (stereo not drawn), the Activity in data set [1] came to 586 µmol/min.
Same read-out and setting: next, `O=C1CC(c2ccc(Cl)cc2)C2=C(N1)c1ccccc1C(=O)C2=O` (stereo not drawn): 557 µmol/min; `CC(C)C1CC(=O)NC2=C1C(=O)C(=O)c1ccccc12` (stereo not drawn): 786 µmol/min.
With `CC1(C)CCC2=C(O1)c1ccccc1C(=O)C2=O` [LAPACHONE], the RatioGI50 in data set [4], in data set [12], in data set [13] and in data set [14] was 2 throughout. The GI50 in the data set on MCF7 turned out to be 4.17 µM; in the data set with HepG2 [2], 2.83 µM; in the data set with A549 [3], 3.32 µM; with HepG2 [5], 6.3 µM; in the data set with A549 [6] it was 6 µM; in the data set with HepG2 [7], 6.21 µM. Besides, the GI50 in the data set with A549 [8] was 6.19 µM. For the same compound, the GI50 at 48 h in [9] stood at 4.54 µM. The Activity result with HepG2 [10] is “Tde”. Besides, the inhibition in vivo (in general, the percentage by which the read-out fell short of the control) at 20 mg/kg with HepG2 [11] amounted to 67.3%.
For `O=C1CC(c2cccc(C(F)(F)F)c2)C2=C(N1)c1ccccc1C(=O)C2=O` (stereo not drawn), in data set [1], the Activity was determined as 1030 µmol/min. For the same compound, the concentration for 50% growth inhibition (GI50) stood at 8.96 µM in the data set with MCF7, 4.24 µM with HepG2 [2] and 12.6 µM in the data set with A549 [3].
Turning to `Cc1ccc(C2CC(=O)NC3=C2C(=O)C(=O)c2ccccc23)cc1` (stereo not drawn), the Activity in data set [1] came to 275 µmol/min.
For the compound `O=C1CC(c2cccc(O)c2)C2=C(N1)c1ccccc1C(=O)C2=O` (stereo not drawn), the Activity in [1] was determined as 509 µmol/min.
As to `Cc1ccccc1C1CC(=O)NC2=C1C(=O)C(=O)c1ccccc12` (stereo not drawn), in data set [1], the Activity was 448 µmol/min.
With `O=C1CC(c2ccccc2)C2=C(N1)c1ccccc1C(=O)C2=O` (stereo not drawn), the Activity in data set [1] is 364 µmol/min. Moreover, the GI50 in the data set with MCF7 came to 15.3 µM; with HepG2 [2], 3.09 µM; with A549 [3], 11.7 µM.
On to `O=C1CC(c2c(F)cccc2F)C2=C(N1)c1ccccc1C(=O)C2=O` (stereo not drawn), for which, in [1], the Activity was determined as 160 µmol/min.
With `O=C1CC(c2ccco2)C2=C(N1)c1ccccc1C(=O)C2=O` (stereo not drawn), the Activity in data set [1] came to 613 µmol/min.
On the same count and under the same terms, next, `COc1cc(C2CC(=O)NC3=C2C(=O)C(=O)c2ccccc23)cc(OC)c1OC` (stereo not drawn): 684 µmol/min.
As for `O=C1CC(c2cc([N+](=O)[O-])ccc2Cl)C2=C(N1)c1ccccc1C(=O)C2=O` (stereo not drawn), the Activity in [1] came to 195 µmol/min.
`O=C1CC(c2cccs2)C2=C(N1)c1ccccc1C(=O)C2=O` (stereo not drawn): the Activity in [1] stood at 621 µmol/min.
Still for that read-out and setting: then `O=C1CC(C2CCCC2)C2=C(N1)c1ccccc1C(=O)C2=O` (stereo not drawn), with 491 µmol/min.
Same read-out and setting: then `Cc1cccc(C2CC(=O)NC3=C2C(=O)C(=O)c2ccccc23)c1` (stereo not drawn), with 333 µmol/min; and `CCCCCC1CC(=O)NC2=C1C(=O)C(=O)c1ccccc12` (stereo not drawn), with 175 µmol/min; and `COc1ccc(C2CC(=O)NC3=C2C(=O)C(=O)c2ccccc23)cc1F` (stereo not drawn), with 192 µmol/min.
On the same count and under the same terms, then `O=C1CC(c2ccc(F)cc2F)C2=C(N1)c1ccccc1C(=O)C2=O` (stereo not drawn), with 936 µmol/min.
For the compound `COc1cc(C2CC(=O)NC3=C2C(=O)C(=O)c2ccccc23)ccc1O` (stereo not drawn), in data set [1], the Activity is 1440 µmol/min. The GI50 in the data set with MCF7 was 1.89 µM; with HepG2 [2] it was 2.24 µM; in the data set with A549 [3] it was 4.38 µM.
With `O=C1CC(C2CCCCC2)C2=C(N1)c1ccccc1C(=O)C2=O` (stereo not drawn), the Activity in data set [1] turned out to be 283 µmol/min.
Regarding `O=C1CC(c2ccc([N+](=O)[O-])cc2)C2=C(N1)c1ccccc1C(=O)C2=O` (stereo not drawn), the Activity in [1] came out at 182 µmol/min.
With `O=C1CC(c2ccc(Cl)cc2Cl)C2=C(N1)c1ccccc1C(=O)C2=O` (stereo not drawn), the Activity in [1] was found to be 760 µmol/min. Besides, the GI50 with MCF7 came to 8.81 µM; with HepG2 [2], 3.27 µM; with A549 [3], 3.13 µM.
In the case of `O=C1CC(c2ccc(F)cc2)C2=C(N1)c1ccccc1C(=O)C2=O` (stereo not drawn), the Activity in data set [1] worked out at 392 µmol/min.
